The results in this text go back to US4886826A, “Substituted 2,3,4,9-tetrahydro-1H-carbazole-1-acetic acid derivatives, composition and use” (American Home Products Corporation, priority 1989, dated 1989).

The subject of experiment [1] is Freund's complete adjuvant-induced hind paw edema in rats. Kind of experiment: Preventative Adjuvant Edema (Freund's complete adjuvant hind paw edema, acute anti-inflammatory effect). It is filed as in vivo, Male Sprague Dawley rats. Particulars: 25 mg/kg, p.o.; rat; edema volume day 0 to day 3. On the procedure: This test is a primary screen for anti-inflammatory drugs.
Male Sprague Dawley rats (180-200 g) are used. The animals have free access to water but food is withdrawn 18 hours before testing.
Freund's complete adjuvant is prepared by suspending 5 mg of killed and dried Mycobacterium butyricum (Difco) in 1 mL liquid paraffin. The test compounds are dissolved in distilled water or suspended in 0.5% Tween 80 in distilled water according to their solubility. For primary screening all drugs are administered by gastric gavage at the arbitrary dosage of 25 mg/kg, p.o. in a volume of 0.5 mL/100 g body weight to groups of 10 animals.
The method is essentially that described by Wax et al, J. Pharmacol. Exp. Ther., 192, 166-171 (1975). Groups of rats are injected intradermally in the left hind paw with 0.1 mL of Freund's complete adjuvant. The test compound or vehicle is administered immediately before the adjuvant, 24 hours and 48 hours after the adjuvant (days 0, 1 and 2). The injected hind paw volume is measured before the injection of adjuvant and 24 hours after the last drug administration (day 3) by means of a plethysomometer (Buxco Electronics Inc.). The difference between the hind paw volume on day 0 and day 3 represents the edema volume. Etodolac (25 mg/kg, p.o.) is included as a positive control.
The mean edema volume (expressed as mL±SEM) is calculated for each group and the percentage inhibition of inflammation conferred by the drug is calculated: [formula] where c is the mean edema volume for the untreated controls and t is the mean edema volume for the drug treated group.

The test system of experiment [2] is Phenylbenzoquinone-induced writhing in mice. Briefly: Phenylbenzoquinone-induced Writhing in Mice (analgesic activity). It is filed as in vivo, Male Swiss albino mice. Particulars: 10 mg/kg, p.o.; mouse; writhes in 15 minutes, PBQ i.p. 60 minutes after dosing. On the procedure:
A further test used to determine the utility of the compounds of the present invention is designated: Drug Effects on Phenylbenzoquinone-induced Writhing in Mice.
The objective of this test is to determine the ability of test drugs to inhibit the nociceptive (pain) response of mice injected with a chemical irritant. This test is a primary screen for both peripherally and centrally acting analgesic drugs.
Male Swiss albino mice (15-25 g) are used. The animals are fasted for 18 hours prior to use but have free access to water.
Drugs are dissolved or suspended according to their solubility in 0.5% Tween 80 in distilled water. They are administered by gastric gavage in a volume of 5 mL/kg. For primary screening all drugs are administered at the arbitrary dosage of 10 mg/kg, p.o. to a group of 10 mice.
A modification of the method of Siegmund et al., Proc. Soc. Exp. Biol. Med., 95, 729-731 (1957) is used. Groups of 5 mice are dosed with the test compound or vehicle control. Sixty minutes later the animals are injected i.p. with 0.3 mL/20 g body weight of a 0.02% solution of phenylbenzoquinone (PBQ; 2-phenyl-1,4-benzoquinone) and placed in individual observation boxes. The number of writhes or abdominal squirming movements made by each mouse during the following 15 minute period is counted. The experiment is repeated with another group of 5 mice and the mean number of writhes per mouse for a group of 10 mice is calculated.
Drug-treated and vehicle-treated control groups are compared and the percentage protection conferred by the drug is calculated: [formula] where c=mean number of writhes in the control group where t=mean number of writhes in the test drug group
Background: An intraperitoneal irritant provokes the stretching counted in writhing tests.

A further experiment concerns cyclooxygenase. Briefly: Rat Polymorphonuclear Leukocyte Assay, cyclooxygenase products (thromboxane B2, prostaglandin E2). It is filed as cell-based. To be noted: 10 min, 10 μM drug concentration, minus=decrease, plus=increase relative to control (no drug), A23187-stimulated, 3H arachidonic acid. On the procedure:
(§1) A test for lipoxygenase and cyclooxygenase inhibitory activity is the Rat Polymorphonuclear Leukocyte Assay. The assay is carried out as follows: glycogen-elicited rat peritoneal cells (10^7 /1.0 mL) are incubated (37° C.)±drug in a shaking water bath for 10 minutes. One micromolar (final concentration) ^3 H arachidonic acid (2.0 μCi) is then added to each sample followed by the immediate addition of 1.0 micromolar A23187* (final concentration). The cells are incubated another 10 minutes and the reaction is stopped by high-speed centrifugation. Supernatants are then analyzed by HPLC using an in-line radioactivity detector. […] Results are qualitatively expressed as a percent change (minus=decrease, plus=increase) relative to the control (no drug). [drawing 20]

A further experiment has as its system lipoxygenase. Kind of experiment: Rat Polymorphonuclear Leukocyte Assay, lipoxygenase products (leukotriene B4, 5-HETE). It is filed as cell-based. To be noted: 10 min, 10 μM drug concentration, minus=decrease, plus=increase relative to control (no drug), A23187-stimulated, 3H arachidonic acid. On the procedure: as §1
Where [3] appears, read: read-out: % change prostaglandin E2.
Where [4] appears, read: read-out: % change thromboxane B2.
Where [5] appears, read: read-out: % change 5-HETE (5-hydroxyeicosatetraenoic acid).
The mark [6] stands for this setting: read-out: % change leukotriene B4.

Each structure is given as a SMILES string. Where two headings read alike, the source gives them in different places.

Usually % Inhibition stands for the change of the read-out against control, counted positive when it falls.

Take `C=CC/C=C\C[C@H]1CC[C@@](CC)(CC(=O)O)c2[nH]c3c(C)cccc3c21` (relative stereo) [Example 4, [1, 4 (Z)]-1-Ethyl-4-(2,5-hexadienyl)-2,3,4,9-tetrahydro-8-methyl-1H-carbazole-1-acetic Acid]: the “% Inhibition” value in experiment [1] was 43%; in experiment [2] it was 23%. Also, the inhibition at 10 µM was 19% in the experiment with cyclooxygenase (setting [3]), 88% in the experiment on cyclooxygenase (setting [4]), 94% in the experiment on lipoxygenase (setting [5]) and 94% in the experiment on lipoxygenase (setting [6]).
In the case of `C=CCCCCC1CCC(CC)(CC(=O)O)c2[nH]c3c(CC)cccc3c21` (single isomer, unassigned) [Example 1, 1,8-Diethyl-4(5-hexenyl)-2,3,4,9-tetrahydro-1H-carbazole-1-acetic Acid], the “% Inhibition” value in experiment [1] and in experiment [2] was 0% throughout. In addition, the inhibition at 10 µM turned out to be 31% in the experiment on cyclooxygenase (setting [3]), 82% with cyclooxygenase (setting [4]), 92% with lipoxygenase (setting [5]) and 93% in the experiment on lipoxygenase (setting [6]).
For `C=CCCCCC1CCC(CC)(CC(=O)O)c2[nH]c3c(C)cccc3c21` (single isomer, unassigned; isomer a) [Example 3, 1-Ethyl-4-(5-hexenyl)-2,3,4,9-tetrahydro-8-methyl-1H-carbazole-1-acetic Acid (Isomer A)], the “% Inhibition” value is listed as 19% in experiment [1] and 10% in experiment [2].
As for `C=CCCCCC1CCC(CC)(CC(=O)O)c2[nH]c3c(C)cccc3c21` (single isomer, unassigned; isomer b) [Example 2, 1-Ethyl-4-(5-hexenyl)-2,3,4,9-tetrahydro-8-methyl-1H-carbazole-1-acetic Acid (Isomer B)], the results for the “% Inhibition” value in experiment [1] and in experiment [2] were 28% and 0%, respectively. The inhibition at 10 µM in the experiment on cyclooxygenase (setting [3]) was -22%; in the experiment on cyclooxygenase (setting [4]), 80%; in the experiment on lipoxygenase (setting [5]), 92%; in the experiment with lipoxygenase (setting [6]), 95%.
